This note sets out measurements from patent EP2039683B1, “Vasculostatic agents and methods of use thereof” (Targegen, Inc., priority 2002, dated 2004).

One assay deals with VEGF-induced edema. Nature of the assay: Miles assay, VEGF as agonist. The format is in vivo, Sprague-Dawley rats. The settings on record: VEGF 200 ng/injection site, vehicle 12. On the procedure: A rodent model of vascular edema, the Miles assay, was used to screen compounds for their ability to inhibit VEGF-induced edema. […] Sprague-Dawley rats were first injected IV with vehicle alone or test agent, followed by IV injection of Evans blue dye, followed by intradermal injections of saline and VEGF (200 ng/injection site) along both shaved flanks. […] The ability of test agent to influence vascular edema was tested as above, except that the ability to block edema was tested using either VEGF or histamine as the agonist (200 ng and 10 µg/injection site, respectively).

Assay [1] can be described thus: Acute myocardial infarct model, 60 min LAD occlusion followed by reperfusion. The assay is classed as in vivo, Sprague-Dawley rats. To be noted: for Infarct (% AAR, mean ± SEM): 24 hr post-treatment. The procedure: Myocardial infarcts were created in Sprague-Dawley rats (200-300 g body weight) by a 60 min occlusion of the LAD followed by LAD reperfusion. At 90 min post-reperfusion, either vehicle alone or test agents were injected IV. At 24 hr post-treatment, the ischemic zone (area at-risk, AAR) was delineated by re-ligation of the LAD followed by IV injection of alkali blue dye, after which hearts were sectioned along the short axis and stained using triphenyltetrazolium chloride to delineate viable from infarcted myocardium. Photographic images were then analyzed using morphometric software to calculate infarct area as a percent of the at-risk area.
In one group, 3-[2,4-diamino-6-(3-hydroxyphenyl)pteridin-7-yl] phenol dihydrochloride salt was administered at both 60 and 240 min post-occlusion.

Molecules are shown by their SMILES. Structures can show the parent of a compound that is named as a salt.

Turning to `O=C1c2ccccc2C(=O)N1c1ccccc1-c1cc2ccccc2[nH]1` [2-[2-(1H-indol-2-yl)-phenyl]-isoindole-1,3-dione], the “Score (scale of 0-12)” value in the assay on VEGF-induced edema (1.5 mg/kg IV) came to 3.

Take `Nc1nc(N)c2nc(CNCc3ccc4ccccc4c3)cnc2n1` [6-{[(Naphthalen-2-ylmethyl)-amino]-methyl}-pteridine-2,4-diamine]: in the assay on VEGF-induced edema (0.1 mg/kg IV), the “Score (scale of 0-12)” value is 4.

Regarding `Cl.Nc1ncnc2nc(-c3ccc(O)c(O)c3)c(-c3ccc(O)c(O)c3)nc12` [4-[4-amino-6-(3,4-dihydroxyphenyl)pteridin-7-yl]benzene-1,2-diol chloride salt], the “Infarct (% AAR, mean ± SEM)” value in assay [1] (0.1 mg/kg BW IV at 90 min post-reperfusion) was determined as 37.1 ± 2.6 % AAR; in assay [1] (1.0 mg/kg BW IV at 90 min post-reperfusion), 40.1 ± 2.0 % AAR. In addition, the “% Infarct reduction” value in assay [1] (0.1 mg/kg BW, versus vehicle of the same study) is reported as 40%; in assay [1] (1.0 mg/kg BW, versus vehicle of the same study) it was 35%.

For `Cl.Nc1cncc2nc(-c3ccc(O)c(O)c3)c(-c3ccc(O)c(O)c3)nc12` [2,3-(3,4-Dihydroxyphenyl)-pyrido[3,4-b]pyrazin-8-ylamine], in the assay on VEGF-induced edema (0.01 mg/kg IV), the “Score (scale of 0-12)” value is on record as 6.

`O=S(=O)(O)c1cc(Nc2ncnc3ncc(-c4ccccc4)nc23)ccc1O` [2-Hydroxy-5-(6-phenyl-pteridin-4-ylamino)-benzenesulfonic acid]: in the assay on VEGF-induced edema (0.5 mg/kg IV), the “Score (scale of 0-12)” value amounted to 6.

In the case of `Oc1cccc(-c2nc3nc(O)nc(O)c3nc2-c2cccc(O)c2)c1` [6,7-Bis-(3-hydroxy-phenyl)-pteridine-2,4-diol], the “Score (scale of 0-12)” value in the assay on VEGF-induced edema (1.5 mg/kg IV) came out at 3.

For `O=C(Cc1ccc(O)cc1)Nc1ccccc1-c1cc2ccccc2[nH]1` [2-(4-Hydroxy-phenyl)-N-[2-(1H-indol-2-yl)-phenyl]-acetamide], in the assay on VEGF-induced edema (1.5 mg/kg IV), the “Score (scale of 0-12)” value is 2.

Turning to `O=C(Cc1ccc(O)c(O)c1)Nc1ccccc1-c1cc2ccccc2[nH]1` [2-(3,4-Dihydroxy-phenyl)-N-[2-(1H-indol-2-yl)-phenyl]-acetamide], the “Score (scale of 0-12)” value in the assay with VEGF-induced edema (0.5 mg/kg IV) was determined as 7.

For `Br.Br.Nc1nc(N)c2nc(-c3cccc(O)c3)c(-c3cccc(O)c3)nc2n1` [3-[2,4-Diamino-6-(3-hydroxyphenyl)pteridin-7-yl]phenol dibromide salt], the “Infarct (% AAR, mean ± SEM)” value in assay [1] (0.5 mg/kg BW IV at 90 min post-reperfusion, Study 5) came out at 31.6 ± 6.2 % AAR. Also, in assay [1] (0.5 mg/kg BW, versus vehicle, Study 5), the “% Infarct reduction” value is reported as 42%.

For the compound `Cl.Oc1ccc(Nc2ncnc3ncc(-c4ccccc4)nc23)c2cccnc12` [5-(6-Phenyl-pteridin-4-ylamino)-quinolin-8-ol hydrochloride salt], the “Score (scale of 0-12)” value with VEGF-induced edema (0.5 mg/kg IV) is 5.

Consider `Nc1nc(N)c2nc(-c3ccc(O)c(O)c3)c(-c3ccc(O)c(O)c3)nc2n1` [6,7-bis(3,4-dihydroxyphenyl)-pteridine-2,4,-diamine, hydrochloride salt], for which the “Infarct (% AAR, mean ± SEM)” value in assay [1] (1.5 mg/kg BW IV at 90 min post-reperfusion) amounted to 36.3 ±6.3 % AAR. In assay [1] (1.5 mg/kg BW, versus vehicle of the same study), the “% Infarct reduction” value turned out to be 33%.

With `Oc1nc(O)c2nc(-c3ccccc3)c(-c3ccc(Oc4ccc(-c5nc6c(O)nc(O)nc6nc5-c5ccccc5)cc4)cc3)nc2n1`, the “Score (scale of 0-12)” value in the assay on VEGF-induced edema (1.5 mg/kg IV) is listed as 3.

Turning to `O=C(Nc1ccccc1-c1cc2ccccc2[nH]1)c1ccc(O)c(O)c1` [3,4-Dihydroxy-N-[2-(1H-indol-2-yl)-phenyl]-benzamide], the “Score (scale of 0-12)” value in the assay with VEGF-induced edema (0.1 mg/kg IV) worked out at 6.

`O=C(CCc1ccc(O)cc1)Nc1ccccc1-c1cc2ccccc2[nH]1` [3-(4-Hydroxy-phenyl)-N-[2-(1H-indol-2-yl)-phenyl]-propionamide]: the “Score (scale of 0-12)” value in the assay with VEGF-induced edema (1.5 mg/kg IV) worked out at 2.

In the case of `Nc1nc(N)c2nc(CNCc3ccccn3)cnc2n1` [6-{[(Pyridin-2-ylmethyl)-amino]-methyl}-pteridine-2,4-diamine], in the assay with VEGF-induced edema (0.1 mg/kg IV), the “Score (scale of 0-12)” value is recorded as 4.

In the case of `O=C(Nc1ccccc1C1Cc2ccccc2N1)c1ccccc1O` (stereo not shown) [N-[2-(2,3-Dihydro-1H-indol-2-yl)-phenyl]-2-hydroxy-benzamide], in the assay on VEGF-induced edema (0.5 mg/kg IV), the “Score (scale of 0-12)” value is reported as 5.

With `Nc1nc(N)c2nc(-c3ccc(O)cc3)cnc2n1` [4-(2,4-Diamno-pteridin-6-yl)-phenol (sulfate salt)], the “Score (scale of 0-12)” value in the assay with VEGF-induced edema (5 mg/kg IV, lower score = greater anti-edema activity) came to 2.
